Experimental data as given in publication PMC9604400, “Synthesis, Anticancer and Antitubercular Properties of New Chalcones and Their Nitrogen-Containing Five-Membered Heterocyclic Hybrids Bearing Sulfonamide Moiety” (International Journal of Molecular Sciences, 2022).
Several values for one entry are separate records, joined by “and”; a condition that tells them apart may be missing. Identical values can stand only once.

Key:
[1] = test system: 60 human cancer cell lines; assay: NCI-60 screen (SRB), whole panel; assay type: cell-based
CCRF-CEM = assay: NCI-60 screen (SRB), leukemia; conditions: Homo sapiens; for CC50: read-out: LC50
K-562 = assay: NCI-60 screen (SRB), leukemia; conditions: Homo sapiens; for IC50: K562; for CC50: K562, read-out: LC50
RPMI-8226 = assay: NCI-60 screen (SRB), leukemia; conditions: Homo sapiens; for IC50: RPMI-8226; for CC50: RPMI-8226, read-out: LC50
SR = assay: NCI-60 screen (SRB), leukemia; conditions: Homo sapiens; for CC50: read-out: LC50
LOX IMVI = assay: NCI-60 screen (SRB), melanoma; conditions: for IC50 / CC50: Homo sapiens; for CC50: read-out: LC50
MALME-3M = assay: NCI-60 screen (SRB), melanoma; conditions: Homo sapiens; for CC50: read-out: LC50
M14 = assay: NCI-60 screen (SRB), melanoma; conditions: Homo sapiens; for IC50: M14; for CC50: M14, read-out: LC50
MDA-MB-435 = assay: NCI-60 screen (SRB), melanoma; conditions: Homo sapiens; for IC50: MDA-MB-435; for CC50: MDA-MB-435, read-out: LC50
SK-MEL-5 = assay: NCI-60 screen (SRB), melanoma; conditions: Homo sapiens; for IC50: SK-MEL-5; for CC50: SK-MEL-5, read-out: LC50
UACC-62 = assay: NCI-60 screen (SRB), melanoma; conditions: Homo sapiens; for IC50: UACC-62; for CC50: UACC-62, read-out: LC50
SF-268 = assay: NCI-60 screen (SRB), CNS cancer; conditions: Homo sapiens; for IC50: SF-268; for CC50: SF-268, read-out: LC50
SF-295 = assay: NCI-60 screen (SRB), CNS cancer; conditions: Homo sapiens; for IC50: SF-295; for CC50: SF-295, read-out: LC50
SF-539 = assay: NCI-60 screen (SRB), CNS cancer; conditions: Homo sapiens; for IC50: SF-539; for CC50: SF-539, read-out: LC50
SNB-19 = assay: NCI-60 screen (SRB), CNS cancer; conditions: Homo sapiens; for IC50: SNB-19; for CC50: SNB-19, read-out: LC50
COLO 205 = assay: NCI-60 screen (SRB), colon cancer; conditions: for IC50 / CC50: Homo sapiens; for IC50: COLO 205; for CC50: COLO 205, read-out: LC50
HCC-2998 = assay: NCI-60 screen (SRB), colon cancer; conditions: for IC50 / CC50: Homo sapiens; for IC50: HCC 2998; for CC50: HCC 2998, read-out: LC50
HCT-116 = assay: NCI-60 screen (SRB), colon cancer; conditions: for IC50 / CC50: Homo sapiens; for IC50: HCT-116; for CC50: HCT-116, read-out: LC50
HT29 = assay: NCI-60 screen (SRB), colon cancer; conditions: Homo sapiens; for IC50: HT-29; for CC50: HT-29, read-out: LC50
A498 = assay: NCI-60 screen (SRB), renal cancer; conditions: Homo sapiens; for IC50: A498; for CC50: A498, read-out: LC50
ACHN = assay: NCI-60 screen (SRB), renal cancer; conditions: Homo sapiens; for CC50: read-out: LC50
CAKI-1 = assay: NCI-60 screen (SRB), renal cancer; conditions: Homo sapiens; for IC50: CAKI-1; for CC50: CAKI-1, read-out: LC50
UO-31 = assay: NCI-60 screen (SRB), renal cancer; conditions: for IC50 / CC50: Homo sapiens; for IC50: UO-31; for CC50: UO-31, read-out: LC50
MDA-MB-231/ATCC = assay: NCI-60 screen (SRB), breast cancer; conditions: Homo sapiens; for IC50: MDA-MB-231; for CC50: MDA-MB-231, read-out: LC50
HS 578T = assay: NCI-60 screen (SRB), breast cancer; conditions: for IC50 / CC50: Homo sapiens, Hs-578T; for CC50: read-out: LC50
T-47D = assay: NCI-60 screen (SRB), breast cancer; conditions: Homo sapiens, T47D; for CC50: read-out: LC50
IGROV1 = assay: NCI-60 screen (SRB), ovarian cancer; conditions: Homo sapiens; for IC50: IGROV-1; for CC50: IGROV-1, read-out: LC50
OVCAR-3 = assay: NCI-60 screen (SRB), ovarian cancer; conditions: Homo sapiens; for IC50: OVCAR-3; for CC50: OVCAR-3, read-out: LC50
A549/ATCC = assay: NCI-60 screen (SRB), non-small cell lung cancer; conditions: Homo sapiens; for IC50: A549; for CC50: A549, read-out: LC50
EKVX = assay: NCI-60 screen (SRB), non-small cell lung cancer; conditions: Homo sapiens; for CC50: read-out: LC50
HOP-62 = assay: NCI-60 screen (SRB), non-small cell lung cancer; conditions: Homo sapiens; for IC50: HOP-62; for CC50: HOP-62, read-out: LC50
HOP-92 = assay: NCI-60 screen (SRB), non-small cell lung cancer; conditions: Homo sapiens; for IC50: HOP-92; for CC50: HOP-92, read-out: LC50
NCI-H460 = assay: NCI-60 screen (SRB), non-small cell lung cancer; conditions: for IC50 / CC50: Homo sapiens; for IC50: NCI-H460; for CC50: NCI-H460, read-out: LC50

For `COc1cc(OC)c(S(N)(=O)=O)cc1C(=O)/C=C/c1ccc(C)cc1` [Compound 17c, (E)-2,4-Dimethoxy-5-(3-(p-tolyl)acryloyl)benzenesulfonamide], the IC50 ([1]; Homo sapiens, five-dose screen, read-out: IC50 values against most cell lines (range)) was 0.54 to 11.5 µM, the inhibition at 10 µM ([1]; Homo sapiens, single dose 10 μM, mean over 60 cell lines, over 100% = cell death, read-out: Mean growth inhibition (GI) percentage) was 81.2% and the IC50 (CCRF-CEM) was 3.99 µM. The CC50 (CCRF-CEM) was > 100 µM, the IC50 (K-562) was 2.43 µM and the CC50 (K-562) was > 100 µM. The IC50 (RPMI-8226) was 3.2 µM, the CC50 (RPMI-8226) was > 100 µM and the IC50 (SR) was 2.26 µM. The CC50 (SR) was > 100 µM, the IC50 (LOX IMVI) was 0.54 µM and the CC50 (LOX IMVI) was 76.2 µM. The IC50 (MALME-3M) was 8.55 µM, the CC50 (MALME-3M) was 59.5 µM and the IC50 (M14) was 3.25 µM. The CC50 (M14) was 56 µM, the IC50 (MDA-MB-435) was 2.27 µM and the CC50 (MDA-MB-435) was 25.4 µM. For the same molecule, the IC50 (SK-MEL-5) was 7.81 µM, the CC50 (SK-MEL-5) was 49.4 µM and the IC50 (UACC-62) was 3.63 µM. The CC50 (UACC-62) was 46.2 µM, the IC50 (SF-268) was 3.2 µM and the CC50 (SF-268) was > 100 µM. It also gave an IC50 (SF-295) of 3.89 µM, a CC50 (SF-295) of 43.2 µM and an IC50 (SF-539) of 2.17 µM. For the same molecule, the CC50 (SF-539) was 14.4 µM, the IC50 (SNB-19) was 3.65 µM and the CC50 (SNB-19) was 45.3 µM. It also gave an IC50 (COLO 205) of 3.33 µM, a CC50 (COLO 205) of 41.7 µM and an IC50 (HCC-2998) of 2.39 µM. The CC50 (HCC-2998) was 22.3 µM, the IC50 (HCT-116) was 30.6 µM and the CC50 (HCT-116) was 58 µM. It also gave an IC50 (HT29) of 3.5 µM, a CC50 (HT29) of 64.7 µM and an IC50 (A498) of 16.2 µM. It also gave a CC50 (A498) of 58.1 µM, an IC50 (ACHN) of 3.86 µM and a CC50 (ACHN) of 37.3 µM. The IC50 (CAKI-1) was 2.42 µM, the CC50 (CAKI-1) was 35.2 µM and the IC50 (UO-31) was 3.46 µM. For the same molecule, the CC50 (UO-31) was 38.1 µM, the IC50 (MDA-MB-231/ATCC) was 3.41 µM and the CC50 (MDA-MB-231/ATCC) was 60 µM. For the same molecule, the IC50 (HS 578T) was 3.5 µM, the CC50 (HS 578T) was > 100 µM and the IC50 (T-47D) was 2.32 µM. The CC50 (T-47D) was 44.8 µM, the IC50 (IGROV1) was 3.56 µM and the CC50 (IGROV1) was 72.4 µM. For the same molecule, the IC50 (OVCAR-3) was 3.05 µM, the CC50 (OVCAR-3) was > 100 µM and the IC50 (A549/ATCC) was 2.75 µM. It also gave a CC50 (A549/ATCC) of 34.8 µM, an IC50 (EKVX) of 4.33 µM and a CC50 (EKVX) of 43.3 µM. The IC50 (HOP-62) was 2.9 µM, the CC50 (HOP-62) was 29.5 µM and the IC50 (HOP-92) was 2.3 µM. The CC50 (HOP-92) was 35.4 µM, the IC50 (NCI-H460) was 2.24 µM and the CC50 (NCI-H460) was 44.3 µM. It also gave a lethality (NCI-H460; NCI-H460, single dose 10 μM) of 3.51%.

With `COc1cc(OC)c(S(=O)(=O)N(CCCl)CCCl)cc1C(=O)/C=C/c1cc(OC)c(OC)c(OC)c1` [Compound 18e, (E)-N,N-bis(2-Chloroethyl)-2,4-dimethoxy-5-(3-(3,4,5-trimethoxyphenyl)acryloyl)benzenesulfonamide] the mean lethality ([1]; single dose 10 μM, mean over 60 cell lines) was 25.48%, the “Mean growth inhibition (GI) percentage” value ([1]; single dose 10 μM, mean over 60 cell lines, over 100% = cell death) was 100.00% and 125.48% and the IC50 (CCRF-CEM) was 1.69 µM. For the same molecule, the CC50 (CCRF-CEM) was > 100 µM, the IC50 (K-562) was 1.3 µM and the CC50 (K-562) was > 100 µM. For the same molecule, the IC50 (RPMI-8226) was 2.52 µM, the CC50 (RPMI-8226) was > 100 µM and the IC50 (SR) was 0.99 µM. The CC50 (SR) was > 100 µM, the IC50 (LOX IMVI) was 2.89 µM and the CC50 (LOX IMVI) was 5.79 µM. The lethality (LOX IMVI; single dose 10 μM) was 84.53%, the IC50 (MALME-3M) was 7.18 µM and the CC50 (MALME-3M) was > 100 µM. The IC50 (M14) was 5.45 µM, the CC50 (M14) was > 100 µM and the IC50 (MDA-MB-435) was 7.51 µM. For the same molecule, the CC50 (MDA-MB-435) was > 100 µM, the IC50 (SK-MEL-5) was 3.64 µM and the CC50 (SK-MEL-5) was 7.19 µM. For the same molecule, the IC50 (UACC-62) was 4.94 µM, the CC50 (UACC-62) was > 100 µM and the IC50 (SF-268) was 7.7 µM. For the same molecule, the CC50 (SF-268) was > 100 µM, the IC50 (SF-295) was 35.4 µM and the CC50 (SF-295) was > 100 µM. For the same molecule, the IC50 (SF-539) was 3.61 µM, the CC50 (SF-539) was 7.51 µM and the IC50 (SNB-19) was 5.71 µM. For the same molecule, the CC50 (SNB-19) was 45.7 µM, the lethality (COLO 205; COLO 205, single dose 10 μM) was 89.76% and the IC50 (COLO 205) was 4.46 µM. It also gave a CC50 (COLO 205) of 8.39 µM, a lethality (HCC-2998; HCC-2998, single dose 10 μM) of 91.08% and an IC50 (HCC-2998) of 3.54 µM. The CC50 (HCC-2998) was 6.35 µM, the lethality (HCT-116; HCT-116, single dose 10 μM) was 87.74% and the IC50 (HCT-116) was 2.82 µM. The CC50 (HCT-116) was 6.47 µM, the IC50 (HT29) was 5.92 µM and the CC50 (HT29) was > 100 µM. The IC50 (A498) was 7.23 µM, the CC50 (A498) was 65.5 µM and the IC50 (ACHN) was 6.16 µM. For the same molecule, the CC50 (ACHN) was > 100 µM, the IC50 (CAKI-1) was > 100 µM and the CC50 (CAKI-1) was > 100 µM. It also gave an IC50 (UO-31) of 2.92 µM, a CC50 (UO-31) of 5.51 µM and a lethality (UO-31; UO-31, single dose 10 μM) of 93.86%. The IC50 (MDA-MB-231/ATCC) was > 100 µM, the CC50 (MDA-MB-231/ATCC) was > 100 µM and the GI% (HS 578T; HS 578T, single dose 10 μM) was 21.70%. The IC50 (HS 578T) was > 100 µM, the CC50 (HS 578T) was > 100 µM and the IC50 (T-47D) was > 100 µM. The CC50 (T-47D) was > 100 µM, the IC50 (IGROV1) was 9.05 µM and the CC50 (IGROV1) was > 100 µM. For the same molecule, the IC50 (OVCAR-3) was 6.62 µM, the CC50 (OVCAR-3) was > 100 µM and the IC50 (A549/ATCC) was 3.11 µM. For the same molecule, the CC50 (A549/ATCC) was > 100 µM, the IC50 (EKVX) was 2.69 µM and the CC50 (EKVX) was > 100 µM. The IC50 (HOP-62) was 3.77 µM, the CC50 (HOP-62) was > 100 µM and the IC50 (HOP-92) was > 100 µM. For the same molecule, the CC50 (HOP-92) was > 100 µM, the IC50 (NCI-H460) was 1.95 µM and the CC50 (NCI-H460) was > 100 µM.
